Experimental data published in PMC9968098, “Towards Arginase Inhibition: Hybrid SAR Protocol for Property Mapping of Chlorinated N-arylcinnamamides” (International Journal of Molecular Sciences, 2023).
Read-outs that look alike come from different tables or passages of the source.

Legend:
[1] = test system: P. falciparum 3D7/MRA-102; assay: In vitro antiplasmodial activity (parasite growth, 48 h); format: cell-based; conditions: Plasmodium falciparum, read-out: Pf IC50 ± SD
Method: The following reagent was obtained through BEI Resources, NIAID, NIH: Plasmodium falciparum, strain 3D7, MRA-102, contributed by Daniel J. Carucci. Based on a modified procedure by Trager and Jensen, asexual erythrocytic stages of Pf were continuously maintained through in vitro culture. The chloroquine-sensitive strain is cultured thanks to human red blood cells (A+) and a culture medium mainly composed of RPMI 1640 (Gibco, Fisher Scientific, Loughborough, UK) containing NaHCO3 (32 mM), HEPES (25 mM), and L-glutamine. The medium was supplemented with 1.76 g/L of glucose (Sigma-Aldrich, […], Belgium), […] of hypoxanthine (Sigma-Aldrich), 100 mg/L of gentamycin (Gibco, Fisher Scientific) and 10% human pooled serum (A+), as previously described. Solutions of pure products were prepared in DMSO at 10 mg/mL. As DMSO is recognized as toxic for parasites, the highest concentration of solvent to which they were exposed was 1%. Thus, primary solutions were diluted in a culture medium to reach 100 μg/mL in the first row of a 96-well plate. Therefore, each test sample was applied in a series of eight 2-fold dilutions and tested in triplicate. The assay was performed with 2% parasitaemia and 1% haematocrit. After 48 h of incubation, plates were frozen at -20 °C for 12 h and parasite growth was quantified according to the methods described by Makler et al.. Chloroquine (Sigma-Aldrich) was used as positive standards in all experiments, with initial concentrations at 100 ng/mL. Infected and uninfected red blood cells (RBC) were used as positive (100% growth) and negative controls (0% growth). Consequently, comparison between infected erythrocytes and samples allowed us to estimate the growth inhibition. IC50 values were calculated from linear regression.

[2] = test system: human monocytic leukemia cell line THP-1; set-up: method as in PMID 35328580; conditions: cell viability, THP-1 cells, n = 3; cited from earlier work
[3] = set-up: method as in PMID 35328580; conditions: experimentally determined lipophilicity, RP-HPLC; cited from earlier work
[4] = chloroquine-sensitive strain 3D7/MRA-102, 48 h incubation, n = 3

SMILES | IC50 [1, 4] [µM] | IC50 [2] [µM] | logk [3] | IC50 ([1]; 3D7, 48 h) [µM]
O=C(/C=C/c1ccc(Cl)cc1)Nc1cccc(C(F)(F)F)c1 [1i] | 14.8 ± 3.1 | > 10 | 0.8612 | 
O=C(/C=C/c1ccc(Cl)cc1)Nc1cc(Cl)ccc1Cl [1n] | > 30 | > 10 | 0.9507 | 
CCN(CC)CCCC(C)Nc1ccnc2cc(Cl)ccc12 (stereo not shown) [CQ, chloroquine, reference compound] |  |  |  | 0.5 ± 0.2
O=C(/C=C/c1ccc(Cl)cc1)Nc1ccccc1F [1b] | > 30 | > 10 | 0.6459 | 
O=C(/C=C/c1ccc(Cl)c(Cl)c1)Nc1ccc(OC(F)(F)F)cc1Br [2q] | 23 ± 2.7 | > 10 | 1.2065 | 
O=C(/C=C/c1ccc(Cl)c(Cl)c1)Nc1cc(Cl)ccc1Cl [2n] | > 30 | > 10 | 1.0840 | 
O=C(/C=C/c1ccc(Cl)c(Cl)c1)Nc1ccccc1 [2a] | 21.4 ± 2.6 | > 10 | 0.6199 | 
O=C(/C=C/c1ccc(Cl)cc1)Nc1ccccc1C(F)(F)F [1h] | > 30 | > 10 | 0.5506 | 
O=C(/C=C/c1ccc(Cl)cc1)Nc1ccccc1Cl [1e] | > 30 | > 10 | 0.5241 | 
O=C(/C=C/c1ccc(Cl)c(Cl)c1)Nc1ccc(F)cc1 [2d] | 14.1 ± 3.1 | > 10 | 0.9009 | 
O=C(/C=C/c1ccc(Cl)cc1)Nc1ccc(F)cc1 [1d] | > 30 | > 10 | 0.7808 | 
O=C(/C=C/c1ccc(Cl)cc1)Nc1cccc(Cl)c1 [1f] | 12.7 ± 2.1 | > 10 | 0.6192 | 
O=C(/C=C/c1ccc(Cl)cc1)Nc1ccc(F)cc1F [1k] | 11 ± 2.1 | > 10 | 0.5746 | 
O=C(/C=C/c1ccc(Cl)cc1)Nc1ccc(Cl)cc1 [1g] | 29.2 ± 2.4 | > 10 | 0.5598 | 
O=C(/C=C/c1ccc(Cl)c(Cl)c1)Nc1ccc(C(F)(F)F)cc1 [2j] | 16 ± 2.5 | > 10 | 1.0364 | 
O=C(/C=C/c1ccc(Cl)c(Cl)c1)Nc1cccc(C(F)(F)F)c1 [2i] | 14.2 ± 2.3 | > 10 | 0.9873 | 
O=C(/C=C/c1ccc(Cl)c(Cl)c1)Nc1cccc(Cl)c1 [2f] | 10.5 ± 2 | > 10 | 0.7404 | 
O=C(/C=C/c1ccc(Cl)cc1)Nc1ccccc1 [1a] | > 30 | > 10 | 0.4490 | 
O=C(/C=C/c1ccc(Cl)c(Cl)c1)Nc1ccccc1Cl [2e] | > 30 | > 10 | 0.6488 | 
O=C(/C=C/c1ccc(Cl)cc1)Nc1ccc(C(F)(F)F)cc1 [1j] | > 30 | > 10 | 0.9078 | 
O=C(/C=C/c1ccc(Cl)c(Cl)c1)Nc1ccccc1C(F)(F)F [2h] | > 30 | > 10 | 0.6836 | 
O=C(/C=C/c1ccc(Cl)c(Cl)c1)Nc1ccccc1F [2b] | > 30 | > 10 | 0.7764 | 
O=C(/C=C/c1ccc(Cl)cc1)Nc1ccc(OC(F)(F)F)cc1Br [1q] | 24.8 ± 2.5 | > 10 | 1.0278 | 

Continued by falling IC50 [1, 4], values first:

IC50 [1, 4] [µM] | SMILES | IC50 [2] [µM] | logk [3] | IC50 ([1]; 3D7, 48 h) [µM]
7.9 ± 1.7 | O=C(/C=C/c1ccc(Cl)c(Cl)c1)Nc1ccc(Cl)cc1 [2g] | > 10 | 0.6786 | 
6.9 ± 2.1 | O=C(/C=C/c1ccc(Cl)cc1)Nc1cccc(F)c1 [1c] | > 10 | 0.7859 | 
5.2 ± 0.9 | O=C(/C=C/c1ccc(Cl)cc1)Nc1cc(F)cc(F)c1 [1l] | > 10 | 0.8054 | 
4.6 ± 1.8 | O=C(/C=C/c1ccc(Cl)cc1)Nc1ccc(Cl)cc1Cl [1m] | > 10 | 0.9665 | 
4.4 ± 1.8 | O=C(/C=C/c1ccc(Cl)cc1)Nc1cc(Cl)cc(Cl)c1 [1o] | > 10 | 1.1899 | 
3.8 ± 1.1 | O=C(/C=C/c1ccc(Cl)c(Cl)c1)Nc1cc(Cl)cc(Cl)c1 [2o] | > 10 | 1.3043 | 
3.4 ± 1 | O=C(/C=C/c1ccc(Cl)c(Cl)c1)Nc1cccc(F)c1 [2c] | > 10 | 0.9071 | 
3.4 ± 0.9 | O=C(/C=C/c1ccc(Cl)c(Cl)c1)Nc1ccc(Cl)cc1Cl [2m] | > 10 | 1.0932 | 
2.5 ± 0.9 | O=C(/C=C/c1ccc(Cl)cc1)Nc1cc(C(F)(F)F)cc(C(F)(F)F)c1 [1p, (2E)-N-[3,5-bis(trifluoromethyl)phenyl]-3-(4-chlorophenyl)prop-2-enamide] | > 10 | 1.3064 | 
1.9 ± 0.06 | O=C(/C=C/c1ccc(Cl)c(Cl)c1)Nc1ccc(F)cc1F [2k, (2E)-3-(3,4-dichlorophenyl)-N-(2,4-difluoro-phenyl)prop-2-enamide] | > 10 | 0.6989 | 
1.8 ± 0.08 | O=C(/C=C/c1ccc(Cl)c(Cl)c1)Nc1cc(F)cc(F)c1 [2l, (2E)-3-(3,4-dichlorophenyl)-N-(3,5-difluoro-phenyl)prop-2-enamide] | > 10 | 0.9298 | 
1.6 ± 0.07 | O=C(/C=C/c1ccc(Cl)c(Cl)c1)Nc1cc(C(F)(F)F)cc(C(F)(F)F)c1 [2p, (2E)-N-[3,5-bis(trifluoromethyl)phenyl]-3-(3,4-dichloro-phenyl)prop-2-enamide] | > 10 | 1.4731 | 
